# Experimental data as given in patent US10910642B1, “Redox flow battery having ligand-metal complex” (Los Alamos National Security, LLC, priority 2017, dated 2021).
# Assay: Complex solubility in acetonitrile with 0.1 M tetrabutylammonium hexafluorophosphate
# Format: physicochemical
# Details: room temperature
# Source text: FIG. 8 is a graph depicting the complex solubility in acetonitrile with 0.1 M tetrabutylammonium hexafluorophosphate.
compound,measurement,value
CCC(CC[N-]C(=O)c1ccccn1)[N-]C(=O)c1ccccn1.[Ni+2] (stereo not shown) [Ni((Etbppn)],maximum solubility,15 mM
